Source: EPA's ToxRefDB 2

How the values were obtained:
[1] = tested on: rat; conditions: Multigenerational reproductive toxicity study, sprague dawley, Oral, Feed, dose end: 2 generation
[2] = tested on: rat; conditions: Combined chronic toxicity/carcinogenicity, sprague dawley, Oral, Feed, dose end: 24 month, group: systemic
[3] = tested on: rat; conditions: Prenatal developmental toxicity study, sprague dawley, Oral, Gavage/Intubation, dose end: 15 GD
[4] = tested on: dog; conditions: Chronic toxicity, beagle, Oral, Capsule, dose end: 12 month, group: systemic
[5] = tested on: rat; conditions: Subchronic oral toxicity in rodents, sprague dawley, Feed, dose end: 90 day
[6] = tested on: mouse; conditions: Subchronic oral toxicity in rodents, b6c3f1, Gavage/Intubation, dose end: 13 week, group: systemic
[7] = tested on: rat; conditions: Subchronic oral toxicity in rodents, fischer, Gavage/Intubation, dose end: 13 week, group: systemic
[8] = tested on: rabbit; conditions: Prenatal developmental toxicity study, new zealand white, Oral, Gavage/Intubation, dose end: 19 GD
[9] = tested on: rat; conditions: Multigenerational reproductive toxicity study, sprague dawley, Oral, Feed, dose end: 2 generation; remark: listed apart in the source
[10] = tested on: rat; conditions: Chronic toxicity, sprague dawley, Oral, Feed, dose end: 104 week, group: systemic
[11] = tested on: mouse; conditions: Carcinogenicity; cd1; Oral; Feed; dose end: 104 week; group: systemic; systemic / organ weight / liver / relative to body weight + systemic / pathology gross / liver / discolored + systemic / pathology …
[12] = tested on: rat; conditions: Subchronic oral toxicity in rodents, sprague dawley, Feed, dose end: 90 day, group: systemic, systemic / organ weight / liver / absolute + systemic / organ weight / liver / relative to body weight + systemic / pathology microscopic / …
[13] = tested on: rat; conditions: Prenatal developmental toxicity study, sprague dawley, Oral, Gavage/Intubation, dose end: 15 GD; remark: listed apart in the source
[14] = tested on: mouse; conditions: Carcinogenicity, cd1, Oral, Feed, dose end: 104 week, group: systemic
[15] = tested on: dog; conditions: Subchronic oral toxicity in nonrodent, beagle, Capsule, dose end: 90 day, group: systemic, systemic / clinical chemistry / alkaline phosphatase (alp/alk) / alkaline phosphatase (alp/alk) + systemic / organ weight / liver / relative…
[16] = tested on: dog; conditions: Chronic toxicity, beagle, Oral, Capsule, dose end: 52 week, group: systemic
[17] = tested on: rat; conditions: Prenatal developmental toxicity study, sprague dawley, Oral, Gavage/Intubation, dose end: 15 GD; remark: listed apart in the source
[18] = tested on: rat; conditions: Combined chronic toxicity/carcinogenicity, sprague dawley, Oral, Feed, dose end: 104 week, group: systemic
[19] = tested on: rat; conditions: Combined chronic toxicity/carcinogenicity, sprague dawley, Dermal, Topical, dose end: 24 month, group: systemic
[20] = tested on: rat; conditions: Subchronic oral toxicity in rodents, sprague dawley, Feed, dose end: 14 week, group: systemic
[21] = group: offspring, developmental / offspring survival late / viability index / viability index + systemic / in life observation / body weight / offspring (pup…
[22] = group: parental, systemic / in life observation / body weight / body weight + systemic / in life observation / body weight / body weight gain + systemic / in…
[23] = group: reproductive, reproductive / offspring survival early / birth index / live birth index
[24] = systemic / pathology microscopic / kidney / nephropathy + systemic / hematology / hemoglobin (hgb) / hemoglobin (hgb) + systemic / …
[25] = group: developmental, developmental / developmental malformation / heart / [other] + developmental / developmental malformation / heart / defect a-v septum
[26] = group: developmental, developmental / developmental malformation / heart / [other] + developmental / developmental malformation / heart / defect a-v septum + …
[27] = group: maternal, reproductive / reproductive performance / resorptions / resorptions + reproductive / offspring survival early / litter size / litter size + …
[28] = systemic / clinical chemistry / alkaline phosphatase (alp/alk) / alkaline phosphatase (alp/alk) + systemic / organ weight / liver / absolute…
[29] = group: cholinesterase, cholinesterase / cholinesterase / cholinesterase / cholinesterase (che)
[30] = group: systemic, systemic / hematology / mean corpuscular (cell) volume (mcv) / mean corpuscular (cell) volume (mcv) + systemic / hematology / mean …
[31] = group: systemic, systemic / organ weight / thyroid gland / absolute
[32] = systemic / hematology / hemoglobin (hgb) / hemoglobin (hgb)
[33] = systemic / hematology / hemoglobin (hgb) / hemoglobin (hgb) + systemic / hematology / erythrocyte (rbc) count differential / erythrocyte (…
[34] = systemic / clinical chemistry / urea nitrogen / urea nitrogen + systemic / hematology / neutrophils / neutrophils + systemic / in life …
[35] = systemic / in life observation / body weight / body weight + systemic / in life observation / body weight / body weight gain + systemic / in…
[36] = group: developmental, developmental / developmental malformation / bone / absent + developmental / developmental malformation / bone / fused + developmental / …
[37] = group: maternal, systemic / in life observation / food consumption / food consumption + systemic / pathology microscopic / liver / apoptosis + systemic / …
[38] = group: offspring, systemic / in life observation / body weight / offspring (pup) weight gain + developmental / developmental landmark / eye opening / eye …
[39] = group: parental, systemic / pathology microscopic / liver / fatty change
[40] = group: parental, systemic / pathology microscopic / liver / fatty change + systemic / in life observation / body weight / body weight + systemic / in life …
[41] = group: reproductive, reproductive / offspring survival early / litter size / litter size
[42] = systemic / pathology microscopic / testes / atrophy
[43] = systemic / pathology microscopic / testes / atrophy + systemic / organ weight / epididymis / relative to body weight + systemic / organ …
[44] = group: developmental, developmental / developmental malformation / bone / delayed ossification + developmental / developmental malformation / bone / incomplete …
[45] = group: maternal, systemic / in life observation / body weight / body weight gain + systemic / in life observation / clinical signs / urogenital staining + …
[46] = systemic / pathology microscopic / liver / pigmentation + systemic / pathology microscopic / liver / vacuolization
[47] = systemic / pathology microscopic / liver / pigmentation + systemic / pathology microscopic / liver / vacuolization + systemic / pathology …
[48] = systemic / clinical chemistry / glucose / glucose
[49] = group: developmental, developmental / developmental malformation / bone / incomplete ossification
[50] = group: maternal, systemic / in life observation / body weight / body weight + systemic / in life observation / clinical signs / ataxia + systemic / in life …
[51] = systemic / pathology microscopic / liver / dilatation + systemic / pathology microscopic / liver / inflammation + systemic / pathology …
[52] = systemic / pathology microscopic / skin / hyperkeratosis
[53] = systemic / pathology microscopic / skin / hyperkeratosis + systemic / pathology microscopic / skin / acanthosis + systemic / clinical …
[54] = systemic / in life observation / body weight / body weight + systemic / in life observation / body weight / body weight gain + systemic / …

## C#CCN1C(=O)COc2cc(F)c(N3C(=O)C4=C(CCCC4)C3=O)cc21 [Flumioxazin]
[1]; [21]
  LEL: 12.7 mg/kg/day
  NEL: 6.3 mg/kg/day
[1]; group: offspring, systemic / in life observation / body weight / offspring (pup) weight
  LOAEL: 15.1 mg/kg/day
[1]; group: offspring, systemic / in life observation / body weight / offspring (pup) weight + developmental / offspring survival late / lactation index / …
  NOAEL: 7.6 mg/kg/day
[1]; group: parental, systemic / in life observation / body weight / body weight
  LOAEL: 12.7 mg/kg/day
[1]; [22]
  NEL: 6.3 mg/kg/day
  NOAEL: 6.3 mg/kg/day
[1]; group: parental, systemic / in life observation / body weight / body weight + systemic / organ weight / epididymis / absolute + systemic / organ weight / …
  LEL: 12.7 mg/kg/day
[1]; [23]
  LEL: 12.7 mg/kg/day
  LOAEL: 12.7 mg/kg/day
  NEL: 6.3 mg/kg/day
  NOAEL: 6.3 mg/kg/day
[2]; systemic / pathology microscopic / kidney / nephropathy
  LOAEL: 18 mg/kg/day
[2]; systemic / pathology microscopic / kidney / nephropathy + systemic / hematology / hemoglobin (hgb) / hemoglobin (hgb) + systemic / pathology…
  LEL: 18 mg/kg/day
[2]; [24]
  NEL: 1.8 mg/kg/day
  NOAEL: 1.8 mg/kg/day
[3]; [25]
  LEL: 10 mg/kg/day
  LOAEL: 10 mg/kg/day
[3]; [26]
  NEL: 3 mg/kg/day
  NOAEL: 3 mg/kg/day
[3]; group: maternal, reproductive / reproductive performance / resorptions / resorptions
  NEL: 10 mg/kg/day
[3]; [27]
  LEL: 30 mg/kg/day
  LOAEL: > 30 mg/kg/day
  NOAEL: ≥ 30 mg/kg/day
[4]; [28]
  LOAEL: 1000 mg/kg/day
  NEL: 10 mg/kg/day
  NOAEL: 100 mg/kg/day
[4]; systemic / organ weight / pituitary gland / absolute + systemic / organ weight / prostate / absolute + systemic / pathology microscopic / …
  LEL: 100 mg/kg/day
[5]; [29]
  LEL: 218 mg/kg/day
  LOAEL: > 218 mg/kg/day
  NEL: 72.9 mg/kg/day
  NOAEL: ≥ 218 mg/kg/day
[5]; [30]
  LOAEL: 22.4 mg/kg/day
  NOAEL: 2.2 mg/kg/day
[5]; [31]
  LEL: 1.9 mg/kg/day
  NEL: < 1.9 mg/kg/day

## O=C1OC(=O)c2c(Cl)c(Cl)c(Cl)c(Cl)c21 [Tetrachlorophthalic anhydride]
[6]; [32]
  LEL: 94 mg/kg/day
  NEL: < 94 mg/kg/day
[6]; [33]
  LOAEL: > 1500 mg/kg/day
  NOAEL: ≥ 1500 mg/kg/day
[7]; [34]
  LOAEL: > 1500 mg/kg/day
  NOAEL: ≥ 1500 mg/kg/day
[7]; [35]
  LEL: 94 mg/kg/day
  NEL: < 94 mg/kg/day

## O=[N+]([O-])c1cc(C(F)(F)F)c(Cl)c([N+](=O)[O-])c1Nc1ncc(C(F)(F)F)cc1Cl [Fluazinam]
[8]; [36]
  LEL: 12 mg/kg/day
  LOAEL: 12 mg/kg/day
  NEL: 7 mg/kg/day
  NOAEL: 7 mg/kg/day
[8]; group: maternal, reproductive / reproductive performance / aborted / aborted
  LEL: 4 mg/kg/day
[8]; [37]
  LOAEL: 7 mg/kg/day
  NEL: 2 mg/kg/day
  NOAEL: 4 mg/kg/day
[9]; group: offspring, systemic / in life observation / body weight / offspring (pup) weight gain
  LOAEL: 47.3 mg/kg/day
[9]; [38]
  LEL: 47.3 mg/kg/day
  NEL: 9.7 mg/kg/day
  NOAEL: 9.7 mg/kg/day
[9]; [39]
  LEL: 9.7 mg/kg/day
  LOAEL: 9.7 mg/kg/day
[9]; [40]
  NEL: 1.9 mg/kg/day
  NOAEL: 1.9 mg/kg/day
[9]; [41]
  LEL: 47.3 mg/kg/day
  LOAEL: 47.3 mg/kg/day
  NEL: 9.7 mg/kg/day
  NOAEL: 9.7 mg/kg/day
[10]; [42]
  LOAEL: 3.9 mg/kg/day
[10]; [43]
  LEL: 3.9 mg/kg/day
  NEL: 1.9 mg/kg/day
  NOAEL: 1.9 mg/kg/day
[11]
  LEL: 126 mg/kg/day
  LOAEL: 126 mg/kg/day
  NEL: < 126 mg/kg/day
  NOAEL: < 126 mg/kg/day
[12]
  LEL: 38 mg/kg/day
  LOAEL: 38 mg/kg/day
  NEL: 3.8 mg/kg/day
  NOAEL: 3.8 mg/kg/day
[13]; [44]
  LOAEL: 250 mg/kg/day
  NEL: 10 mg/kg/day
  NOAEL: 50 mg/kg/day
[13]; group: developmental, developmental / developmental malformation / bone / full supernumerary
  LEL: 50 mg/kg/day
[13]; [45]
  LEL: 250 mg/kg/day
  LOAEL: 250 mg/kg/day
  NEL: 50 mg/kg/day
  NOAEL: 50 mg/kg/day
[14]; [46]
  LEL: 10.7 mg/kg/day
  LOAEL: 10.7 mg/kg/day
[14]; [47]
  NEL: 1.12 mg/kg/day
  NOAEL: 1.12 mg/kg/day
[15]
  LEL: 100 mg/kg/day
  LOAEL: 100 mg/kg/day
  NEL: 10 mg/kg/day
  NOAEL: 10 mg/kg/day
[16]; [48]
  LEL: 1 mg/kg/day
  NEL: < 1 mg/kg/day
[16]; systemic / in life observation / clinical signs / nasal dryness + systemic / pathology microscopic / stomach / hyperplasia
  LOAEL: 10 mg/kg/day
[16]; systemic / in life observation / clinical signs / nasal dryness + systemic / pathology microscopic / stomach / hyperplasia + systemic / …
  NOAEL: 1 mg/kg/day
[17]; [49]
  LEL: 100 mg/kg/day
  LOAEL: > 1000 mg/kg/day
  NEL: 10 mg/kg/day
  NOAEL: ≥ 1000 mg/kg/day
[17]; [50]
  LEL: 1000 mg/kg/day
  LOAEL: > 1000 mg/kg/day
  NEL: 100 mg/kg/day
  NOAEL: ≥ 1000 mg/kg/day
[18]; [51]
  LOAEL: 3.8 mg/kg/day
  NOAEL: 0.38 mg/kg/day
[18]; [42]
  LEL: 0.04 mg/kg/day
  NEL: < 0.04 mg/kg/day

## CCC(C)OC(=O)N1CCCCC1CCO (stereo unspecified) [Icaridin]
[19]; [52]
  LEL: 50 mg/kg/day
  NEL: < 50 mg/kg/day
[19]; [53]
  LOAEL: > 200 mg/kg/day
  NOAEL: ≥ 200 mg/kg/day
[20]; [54]
  LOAEL: 1030 mg/kg/day
  NEL: 100 mg/kg/day
  NOAEL: 301 mg/kg/day
[20]; systemic / organ weight / kidney / relative to body weight + systemic / clinical chemistry / alanine aminotransferase (alt/sgpt) / alanine …
  LEL: 149 mg/kg/day
